Source: patent US8507411B2, “Neoglycorandomization and digitoxin analogs” (priority 2004, dated 2013)

Assays:
HT-29 = test: Cell titer-glo cytotoxicity assay, HT-29; type: cell-based, human; details: HT-29, Cell titer-glo
Source text: (§1) FIG. 7 is a graphical summary of the results of the IC50 data from cytotoxicity assays. […] In the assay, live cells are quantified by measuring the luminescent signal resulting from the reaction between cellular ATP and luciferin to form oxyluciferin. The IC50 value for each compound represents at least four replicates of dose-response experiments conducted over six concentrations at two-fold dilutions.
(§2) The anticancer activities of ten panel analogues (3a-c,e,f and 4a-c,e,f) and digitoxin (1) were assessed using a high-throughput cytotoxicity assay on four human cancer cell lines, (FIG. 7) representing lung, colorectal, and ovarian carcinomas, as well as NCI/ADR-RES, a drug-resistant ovarian carcinoma line (For years, NCI/ADR-RES cells have been misidentified as drug-resistant MCF-7 breast adenocarcinoma cells, but recently this line has been shown definitively to be a drug-resistant line derived from OVCAR-8 ovarian adenocarcinoma cells. Liscovitch, M. et al., Cancer Lett. (2007) 245, 350-352.
(§3) All cell lines were maintained as previously reported (Langenhan, J. M. et al., Proc. Natl. Acad. Sci. (2005) 102, 12305-12310.) Cells were harvested by trypsinization using 0.25% trypsin and 0.1% EDTA and then counted in a Cellometer Auto T4 cell counter (Nexcelom, inc), before dilution for assay plating. […] Each plate was read for luminescence. […]

NCI-H460 = test: Cell titer-glo cytotoxicity assay, NCI-H460; type: cell-based, human
Source text: as §1, §2, §3

[1] = Hydrolytic stability of the neoglycosidic linkage; type: physicochemical; details: neutral or basic conditions (pH 7, pH 9), 3 mM in 1:1 DMSO/buffer, one month
Description: FIG. 4 is a graphic representation of the results of studies on the hydrolytic stability of neoglycoside 4α. The chemical stability of the neoglycosidic linkage was examined by monitoring the hydrolytic degradation of neoglycoside 4α in a 3 mM solution of 1:1 DMSO/buffer. Three buffers were used, 50 mM acetate buffer (pH 5), 50 mM phosphate buffer (pH 7), and 50 mM Tris buffer (pH 9). Neoglycoside degradation was monitored by reverse phase HPLC on an Agilent Zorbax Eclipse XDB-C8 column (4.6×150 mm) with a flow rate of 0.8 mL min^−1 and a linear gradient of 49% CH3OH/H2O to 89% CH3OH/H2O over 20 min. At t=0, neoglycoside 4α in 500 μL DMSO was added to 500 μL buffer, and the resulting solution was vortexed for 40 sec, then immediately injected onto the HPLC. Peak areas at 220 nm were used to estimate the neoglycoside/aglycon ratio, which is reported as “percent neoglycoside remaining” [Aneoglycoside/(Aneoglycoside+Aaglycon)] for each of the three buffer systems.
Hydrolytic Stability of 4α. The chemical stability of the neoglycosidic linkage was examined by monitoring the hydrolytic degradation of neoglycoside 4α in a 3 mM solution of 1:1 DMSO/buffer. Three buffers were used, 50 mM acetate buffer (pH 5), 50 mM phosphate buffer (pH 7), and 50 mM Tris buffer (pH 9). Neoglycoside degradation was monitored by reverse phase HPLC on an Agilent Zorbax Eclipse XDB-C8 column (4.6×150 mm) with a flow rate of 0.8 mL min^−1 and a linear gradient of 49% CH3OH/H2O to 89% CH3OH/H2O over 20 min. At t=0, neoglycoside 4α in 500 μL DMSO was added to 500 μL buffer, and the resulting solution was vortexed for 40 sec, then immediately injected onto the HPLC. Peak areas at 220 nm were used to estimate the neoglycoside/aglycon ratio, which is reported as “percent neoglycoside remaining” [Aneoglycoside/(Aneoglycoside+Aaglycon)] for each of the three buffer systems (see FIG. 4).
The chemical stability of the neoglycosidic linkage was examined by monitoring the hydrolytic degradation of neoglycoside 4α in a 3 mM solution of 1:1 DMSO/buffer using buffers at three different pHs.

| SMILES | IC50 (HT-29) [nM] | IC50 (NCI-H460) [nM] | hydrolytic stability [1] |
| --- | --- | --- | --- |
| CON([C@H]1CC[C@@]2(C)[C@H](CC[C@@H]3[C@@H]2CC[C@]2(C)[C@@H](C4=CC(=O)OC4)CC[C@]32O)C1)[C@H]1OC[C@H](O)[C@H](O)[C@@H]1O [5β, L-riboside] | 80 |  |  |
| CON([C@H]1CC[C@@]2(C)[C@H](CC[C@@H]3[C@@H]2CC[C@]2(C)[C@@H](C4=CC(=O)OC4)CC[C@]32O)C1)[C@H]1OC[C@H](O)[C@@H](O)[C@@H]1O [23β, L-xyloside] | 66 | 55 |  |
| CON([C@H]1CC[C@@]2(C)[C@H](CC[C@@H]3[C@@H]2CC[C@]2(C)[C@@H](C4=CC(=O)OC4)CC[C@]32O)C1)[C@@H]1O[C@H](CO)[C@@H](O)[C@H](O)[C@@H]1O [27β, D-mannoside] |  |  | no hydrolytic degradation |
